Where two headings read alike, the source gives them in different places.
Tests used:
[1] = system: JJN-3 (NIK translocated) multiple myeloma cells; assay: Antiproliferative activity on JJN-3 multiple myeloma cells (CellTiter-Glo); format: cell-based, human; conditions: JJN-3 (NIK translocated) cells, 96 hr treatment, averaged values, read-out: JJN-3 Proliferation inhibition (IC50 (nM))
Description: (§1) Determination of Antiproliferative Activity on JJN-3 (NIK Translocated) and KMS12-BM (NIK WT) Multiple Myeloma Cells
(§2) All compounds tested were dissolved in DMSO and further dilutions were made in culture medium. Final DMSO concentration was 0.3% (v/v) in cell proliferation assays. Viability was assessed using CellTiter-Glo cell viability assay kit (Promega). […] Cells were routinely kept as suspension cells at 37° C. in a humidified 5% CO2 atmosphere. Cells were passaged at a seeding density of 0.2×10^6/ml twice a week. Cells were seeded in black tissue culture treated 96-well plates (Perkin Elmer). Densities used for plating ranged from 15000 (JJN3) to 20000 (KMS12BM) cells per well in a total volume of 135 μl medium. Drugs and/or solvents were added (15 μl) to a final volume of 150 μl. Following 96 hr of treatment, plates were removed from the incubator and allowed to equilibrate to room temperature for approx 10 min. 75 μl CellTiter-Glo reagent was added to each well that was then covered (Perkin Elmer Topseal) and shaken on plate shaker for 10 min. Luminescence was measured on a HTS Topcount (Perkin Elmer). […] For initial screening purposes, compounds were tested using a 9 point dilution curve (serial 1:3 dilutions). For each experiment, controls (containing no drug) and a blank incubation (containing cells read at the time of compound addition) were run in parallel. The blank value was subtracted from all control and sample values. For each sample, the mean value for cell growth (in relative light units) was expressed as a percentage of the mean value for cell growth of the control.

[2] = system: KMS12-BM (NIK WT) multiple myeloma cells; assay: Antiproliferative activity on KMS12-BM multiple myeloma cells (CellTiter-Glo); format: cell-based, human; conditions: 96 hr treatment, averaged values, read-out: KMS-12 Proliferation inhibition (IC50 (nM))
Description: as §1, §2

[3] = system: P-IKKα levels in L363 (NIK translocated multiple myeloma) cells; assay: Effect of compounds on P-IKKα levels in L363 cells (Mesoscale sandwich immuno-assay); format: cell-based, human; conditions: 2 hr treatment, averaged values, read-out: Inhibition of pIKKα_L-363 (IC50 (nM))
Description: Effect of Compounds on P-IKKα Levels in L363 (NIK Translocated Multiple Myeloma) Cells
All compounds tested were dissolved in DMSO and further dilutions were made in culture medium. Final DMSO concentration was 1% (v/v) in cell assays. The human L363 cells (ATCC) were cultured in RPMI 1640 medium supplemented with GlutaMax and 10% fetal calf serum (PAA). Cells were routinely maintained at densities of 0.2×10^6 cells per ml-1×10^6 cells per ml at 37° C. in a humidified 5% CO2 atmosphere. Cells were passaged twice a week splitting back to obtain the low density. Cells were seeded in 96 well plates (Nunc 167008) at 2×10^6 per ml media in a volume of 75 μl per well plus 25 μl 1 μg/ml recombinant human B-cell activating factor (BAFF/BLyS/TNFSF13B). Seeded cells were incubated at 37° C. in a humidified 5% CO2 atmosphere for 24 hr. Drugs and/or solvents were added (20 μl) to a final volume of 120 μl. Following 2 hr treatment plates were removed from the incubator and cell lysis was achieved by the addition of 30 μl 5× lysis buffer followed by shaking on a plate shaker at 4° C. for 10 min. At the end of this incubation lysed cells were centrifuged at 800×g for 20 min at 4° C. and the lysate was assessed for P-IKK levels by sandwich immuno-assay carried out in anti-rabbit antibody coated Mesoscale plates. Within an experiment, the results for each treatment were the mean of 2 replicate wells. For initial screening purposes, compounds were tested using an 8 point dilution curve (serial 1:3 dilutions). […] The blank incubation value was subtracted from all control and sample values. To determine the IC50 a sigmoidal curve was fitted to the plot of % inhibition of control P-IKKα levels versus Log10 compound concentration.

[4] = molecular target: recombinant human NF-kappaB-inducing Kinase (NIK/MAP3K14) (Homo sapiens, UniProt Q99558); assay: Inhibition of auto-phosphorylation of recombinant human NIK/MAP3K14 activity (AlphaScreen); format: biochemical; conditions: 25 microM ATP, averaged over all measurements on all batches
Chain of recombinant human NF-kappaB-inducing Kinase (NIK/MAP3K14) (Q99558 whole entry): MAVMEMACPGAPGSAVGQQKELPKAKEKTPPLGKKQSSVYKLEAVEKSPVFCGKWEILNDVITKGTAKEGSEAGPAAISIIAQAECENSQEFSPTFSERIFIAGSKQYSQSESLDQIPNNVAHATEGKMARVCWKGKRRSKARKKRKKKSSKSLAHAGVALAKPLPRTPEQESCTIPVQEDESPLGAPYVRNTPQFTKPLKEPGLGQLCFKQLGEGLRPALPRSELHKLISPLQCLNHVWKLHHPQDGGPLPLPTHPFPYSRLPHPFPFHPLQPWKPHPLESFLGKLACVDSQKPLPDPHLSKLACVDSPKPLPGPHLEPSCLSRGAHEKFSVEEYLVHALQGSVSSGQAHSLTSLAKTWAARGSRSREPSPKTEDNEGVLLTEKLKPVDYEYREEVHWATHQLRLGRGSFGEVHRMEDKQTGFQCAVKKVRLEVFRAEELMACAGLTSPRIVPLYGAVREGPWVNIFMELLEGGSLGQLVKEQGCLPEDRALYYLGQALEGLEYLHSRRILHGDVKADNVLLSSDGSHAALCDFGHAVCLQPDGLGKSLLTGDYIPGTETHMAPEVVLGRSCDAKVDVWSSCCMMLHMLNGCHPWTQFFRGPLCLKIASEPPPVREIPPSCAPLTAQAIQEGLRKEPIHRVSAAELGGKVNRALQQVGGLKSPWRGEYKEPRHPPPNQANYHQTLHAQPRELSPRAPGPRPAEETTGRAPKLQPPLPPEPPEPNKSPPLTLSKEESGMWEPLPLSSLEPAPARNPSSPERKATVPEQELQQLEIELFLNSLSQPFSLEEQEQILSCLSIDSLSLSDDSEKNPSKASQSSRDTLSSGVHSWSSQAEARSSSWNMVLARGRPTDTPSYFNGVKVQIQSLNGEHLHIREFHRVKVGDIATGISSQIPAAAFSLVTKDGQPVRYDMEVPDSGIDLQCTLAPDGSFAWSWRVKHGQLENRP
Description: Pharmacological Part Biological assay A Inhibition of auto-phosphorylation of recombinant human NF-kappaB-inducing Kinase (NIK/MAP3K14) Activity (AlphaScreen®)
NIK/MAP3K14 auto-phosphorylation activity was measured using the AlphaScreen® (αscreen) format (Perkin Elmer). All compounds tested were dissolved in dimethyl sulfoxide (DMSO) and further dilutions were made in assay buffer. Final DMSO concentration was 1% (v/v) in assays. Assay buffer was 50 mM Tris pH 7.5 containing 1 mM EGTA (ethylene glycol tetraacetic acid), 1 mM DTT (dithiothreitol), 0.1 mM Na3VO4, 5 mM MgCl2, 0.01% Tween® 20. Assays were carried out in 384 well Alphaplates (Perkin Elmer). […] Incubations were initiated by addition of GST-tagged NIK/MAP3K14 enzyme, carried out for 1 h at 25° C. and terminated by addition of stop buffer containing anti-phospho-IKK Ser176/180 antibody. Protein A Acceptor and Glutathione-Donor beads were added before reading using an EnVision® Multilabel Plate Reader (Perkin Elmer). Signal obtained in the wells containing blank samples was subtracted from all other wells and IC50's were determined by fitting a sigmoidal curve to % inhibition of control versus Log10 compound concentration.

| Structure (SMILES) | IC50 [1] [nM] | IC50 [2] [nM] | IC50 [3] [nM] | IC50 [4] [nM] | IC50 ([1]; Homo sapiens, JJN-3, 96 h) [nM] | IC50 ([2]; Homo sapiens, KMS-12-BM, 96 h) [nM] | IC50 ([3]; Homo sapiens, L-363, 2 h) [nM] | melting point [°C] |
| --- | --- | --- | --- | --- | --- | --- | --- | --- |
| Cc1cnc(OC2CCN(C)CC2F)c(Nc2nccc(-c3cc(C#N)c4c(c3)[C@@](C)(CO)CN4)n2)c1 (mixture of isomers) [Compound 171] | 12 | > 10000 | 6.9 | 7.4 |  |  |  |  |
| COc1ncccc1Nc1nccc(-c2cc(C#N)c3c(c2)C(C)(CO)CN3)n1 (stereo not drawn) [Compound 1] |  |  |  |  | 79 | ~2690 | 81.3 |  |
| Cc1cc(Nc2nccc(-c3cc(C#N)c4c(c3)[C@@](C)(CO)CN4)n2)c(=O)n(CCC2CC2)c1 [Compound 5i] |  |  |  | 4.5 | 282 | 5010 | 15.8 |  |
| Cc1cc(Nc2nccc(-c3cc(C#N)c4c(c3)[C@@](C)(CO)CN4)n2)c(=O)n(CCN2CCOCC2)c1 [Compound 7i] |  |  |  | 1.2 | 115 | 9550 | 3.7 |  |
| CN1CCC(c2cc(Nc3nccc(-c4cc(C#N)c5c(c4)[C@@](C)(CO)CN5)n3)c(=O)n(CC3CC3)c2)CC1 [Compound 21i] |  |  |  | 64.6 |  |  | 550 |  |
| CNC(=O)c1cc(Nc2nccc(-c3cc(C#N)c4c(c3)[C@@](C)(CO)CN4)n2)c(=O)n(CC2CC2)c1 [Compound 25i] |  |  |  | 1.7 | 120 | > 10000 | 9.5 |  |
| Cc1cc(Nc2nccc(-c3cc(C#N)c4c(c3)[C@@](C)(CO)CN4)n2)c(=O)n(CC2COCCN2C)c1 (stereo partly drawn) [Compound 26i] |  |  |  | 2.1 | 28 | > 10000 | 2.3 |  |
| Cc1cc(Nc2nccc(-c3cc(C#N)c4c(c3)C(C)(C)CN4)n2)c(=O)n(CCN2CC(F)C2)c1 [Compound 27i] |  |  |  | 5.8 | 148 | > 10000 | 13.8 |  |
| CC(C)Oc1nc(P(C)(C)=O)ccc1Nc1nccc(-c2cc(C#N)c3c(c2)[C@@](C)(CO)CN3)n1 [Compound 57] |  |  |  | 4.3 | 316 | ~8130 | 13.8 |  |
| COc1ncccc1Nc1nccc(-c2cc(C#N)c3c(c2)C(C)(CN2CCNCC2)CN3)n1 (stereo not drawn) [Compound 111] |  |  |  | 14.8 | 669 | 3160 |  | 220 |
| COc1ncccc1Nc1nccc(-c2cc(C#N)c3c(c2)C(C)(CNCCS(C)(=O)=O)CN3)n1 (stereo not drawn) [Compound 112] |  |  |  | 22.9 | 1820 | > 10000 |  | 146 |
| COc1ncccc1Nc1nccc(-c2cc(C#N)c3c(c2)C(C)(CN2CCOCC2)CN3)n1 (stereo not drawn) [Compound 113] |  |  |  | 34.7 | 5750 | > 10000 |  | 95 |
| COc1ncccc1Nc1nccc(-c2cc(C#N)c3c(c2)C(C)(CN(C)CCO)CN3)n1 (stereo not drawn) [Compound 114] |  |  |  | 32.4 | 3550 | > 10000 |  | 60 |
| COc1ncccc1Nc1nccc(-c2cc(C#N)c3c(c2)C(C)(CNC(C)=O)CN3)n1 (stereo not drawn) [Compound 115] |  |  |  | 10 | 741 | 6310 |  | 203 |
| COc1ncccc1Nc1nccc(-c2cc(C#N)c3c(c2)C(C)(COCCNC(C)C)CN3)n1 (stereo not drawn) [Compound 116] |  |  |  | 85.1 | 2040 | > 10000 |  | 95 |
| COc1ncccc1Nc1nccc(-c2cc(C#N)c3c(c2)C(C)(COCCN2CCOCC2)CN3)n1 (stereo not drawn) [Compound 117] |  |  |  | 45.7 | > 10000 | > 10000 |  | 108 |
| COc1ncccc1Nc1nccc(-c2cc(C#N)c3c(c2)C(C)(COCCN2CCCC2)CN3)n1 (stereo not drawn) [Compound 118] |  |  |  | 64.6 | 4570 | 4070 |  | 88 |
| COc1ncc(Cl)cc1Nc1nccc(-c2cc(C#N)c3c(c2)C(C)(COCCNC2CC2)CN3)n1 (stereo not drawn) [Compound 119] |  |  |  | 129 | 1290 | 2000 |  | 106 |
| COc1ncc(Cl)cc1Nc1nccc(-c2cc(C#N)c3c(c2)C(C)(COCCN2CCCC2)CN3)n1 (stereo not drawn) [Compound 120] |  |  |  | 79.4 | 631 | 1230 |  | 152 |
| COc1ncc(Cl)cc1Nc1nccc(-c2cc(C#N)c3c(c2)C(C)(COCCN2CCOCC2)CN3)n1 (stereo not drawn) [Compound 121] |  |  |  | 117 | 1410 | 2510 |  | 104 |
| COC[C@@]1(C)CNc2c(C#N)cc(-c3ccnc(Nc4cc(Cl)cnc4C)n3)cc21 [Compound 122] |  |  |  | 9.5 | 478 | 4790 |  | 182 |
| CC1(C)CNc2c(C#N)cc(-c3ccnc(Nc4cnc(N5CCOCC5)nc4)n3)cc21 [Compound 125] |  |  |  | 9.8 | 166 | 891 |  | 270 |
| Cc1ccnc(Nc2nccc(-c3cc(C#N)c4c(c3)C(C)(CO)CN4)n2)n1 (stereo not drawn) [Compound 126] |  |  |  | 148 | 2510 | > 10000 |  | 227 |
| Cc1cc(Nc2nccc(-c3cc(C#N)c4c(c3)C(C)(CO)CN4)n2)nc(C)n1 (stereo not drawn) [Compound 127] |  |  |  | 4.5 | ~7080 | > 10000 |  | 333 |
| CC1(CO)CNc2c(C#N)cc(-c3ccnc(Nc4cncnc4)n3)cc21 (stereo not drawn) [Compound 128] |  |  |  | 6.3 | 209 | ~195 |  | 307 |
| COc1nc(C)ncc1Nc1nccc(-c2cc(C#N)c3c(c2)[C@@](C)(CO)CN3)n1 [Compound 129] |  |  |  | 1.8 | 562 | > 10000 |  | 223 |
| COCCOc1nc(C)ncc1Nc1nccc(-c2cc(C#N)c3c(c2)[C@@](C)(CO)CN3)n1 [Compound 136] |  |  |  | 18.2 | 2000 | > 10000 |  | 231 |
| CNC(=O)c1ncc(Cl)cc1Nc1nccc(-c2cc(C#N)c3c(c2)C(C)(CO)CN3)n1 (stereo not drawn) [Compound 178] |  |  |  | 18.2 |  |  | 51.3 |  |
| CC1(CO)CNc2c(C#N)cc(-c3ccnc(Nc4cc(Cl)cnc4C(=O)N4CCCC4)n3)cc21 (stereo not drawn) [Compound 179] |  |  |  | 93.3 |  |  | 1440 |  |
| COc1ncccc1Nc1ncnc(-c2cc(C#N)c3c(c2)[C@@](C)(CO)CN3)n1 [Compound 181] |  |  |  | 5.2 |  |  | 25.1 |  |

Reference: patent US11001569B2, “6-membered heteroaromatic substituted cyanoindoline derivatives as NIK inhibitors” (Janssen Pharmaceutica NV, priority 2016, dated 2021)
